The record followed here is publication PMC4769319, “Cohesin Releases DNA through Asymmetric ATPase-Driven Ring Opening” (Molecular Cell, 2016).

SMILES strings stand for the structures.

The test deals with T1, Smc1/Smc3 heterodimer with Scc1-C (cohesin) (Saccharomyces cerevisiae, UniProt P32908+P47037, P32908:D1164E, form not given).
T1 construct: N-terminal tags; Sf9 insect cells; fluorescently labelled for MST; with Sister chromatid cohesion protein 1
T1 sequence (P32908 1-1225 D1164E): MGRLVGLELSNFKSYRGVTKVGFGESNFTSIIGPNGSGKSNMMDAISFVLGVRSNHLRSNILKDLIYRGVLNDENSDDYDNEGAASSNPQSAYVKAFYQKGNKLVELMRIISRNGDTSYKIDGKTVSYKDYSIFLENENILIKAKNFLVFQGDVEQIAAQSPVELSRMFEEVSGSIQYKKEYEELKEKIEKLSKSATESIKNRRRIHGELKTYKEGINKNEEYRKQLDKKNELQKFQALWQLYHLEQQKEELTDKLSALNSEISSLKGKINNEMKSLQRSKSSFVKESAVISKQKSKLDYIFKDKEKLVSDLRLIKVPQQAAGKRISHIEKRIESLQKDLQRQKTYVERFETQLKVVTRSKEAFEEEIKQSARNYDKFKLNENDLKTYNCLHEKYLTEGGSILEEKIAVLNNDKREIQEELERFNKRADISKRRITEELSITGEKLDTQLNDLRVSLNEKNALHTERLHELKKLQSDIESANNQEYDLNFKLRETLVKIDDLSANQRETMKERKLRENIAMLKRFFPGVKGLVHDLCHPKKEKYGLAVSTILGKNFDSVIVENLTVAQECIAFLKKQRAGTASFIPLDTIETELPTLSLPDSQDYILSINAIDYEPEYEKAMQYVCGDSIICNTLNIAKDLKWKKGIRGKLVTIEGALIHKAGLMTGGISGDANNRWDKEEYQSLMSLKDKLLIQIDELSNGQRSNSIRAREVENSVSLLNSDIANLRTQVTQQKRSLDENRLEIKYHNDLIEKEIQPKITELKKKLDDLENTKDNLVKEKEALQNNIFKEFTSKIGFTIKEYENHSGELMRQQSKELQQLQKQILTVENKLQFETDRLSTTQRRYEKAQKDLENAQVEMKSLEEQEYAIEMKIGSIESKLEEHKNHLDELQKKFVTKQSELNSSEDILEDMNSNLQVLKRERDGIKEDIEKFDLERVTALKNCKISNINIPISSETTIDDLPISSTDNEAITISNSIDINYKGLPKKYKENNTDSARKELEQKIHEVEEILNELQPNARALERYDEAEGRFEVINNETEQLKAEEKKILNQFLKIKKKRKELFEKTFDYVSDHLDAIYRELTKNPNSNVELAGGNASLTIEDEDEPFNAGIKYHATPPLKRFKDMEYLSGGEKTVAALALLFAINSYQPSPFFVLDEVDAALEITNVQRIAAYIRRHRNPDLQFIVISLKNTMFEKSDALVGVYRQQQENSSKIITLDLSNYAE
T1 sequence (P47037 1-1230): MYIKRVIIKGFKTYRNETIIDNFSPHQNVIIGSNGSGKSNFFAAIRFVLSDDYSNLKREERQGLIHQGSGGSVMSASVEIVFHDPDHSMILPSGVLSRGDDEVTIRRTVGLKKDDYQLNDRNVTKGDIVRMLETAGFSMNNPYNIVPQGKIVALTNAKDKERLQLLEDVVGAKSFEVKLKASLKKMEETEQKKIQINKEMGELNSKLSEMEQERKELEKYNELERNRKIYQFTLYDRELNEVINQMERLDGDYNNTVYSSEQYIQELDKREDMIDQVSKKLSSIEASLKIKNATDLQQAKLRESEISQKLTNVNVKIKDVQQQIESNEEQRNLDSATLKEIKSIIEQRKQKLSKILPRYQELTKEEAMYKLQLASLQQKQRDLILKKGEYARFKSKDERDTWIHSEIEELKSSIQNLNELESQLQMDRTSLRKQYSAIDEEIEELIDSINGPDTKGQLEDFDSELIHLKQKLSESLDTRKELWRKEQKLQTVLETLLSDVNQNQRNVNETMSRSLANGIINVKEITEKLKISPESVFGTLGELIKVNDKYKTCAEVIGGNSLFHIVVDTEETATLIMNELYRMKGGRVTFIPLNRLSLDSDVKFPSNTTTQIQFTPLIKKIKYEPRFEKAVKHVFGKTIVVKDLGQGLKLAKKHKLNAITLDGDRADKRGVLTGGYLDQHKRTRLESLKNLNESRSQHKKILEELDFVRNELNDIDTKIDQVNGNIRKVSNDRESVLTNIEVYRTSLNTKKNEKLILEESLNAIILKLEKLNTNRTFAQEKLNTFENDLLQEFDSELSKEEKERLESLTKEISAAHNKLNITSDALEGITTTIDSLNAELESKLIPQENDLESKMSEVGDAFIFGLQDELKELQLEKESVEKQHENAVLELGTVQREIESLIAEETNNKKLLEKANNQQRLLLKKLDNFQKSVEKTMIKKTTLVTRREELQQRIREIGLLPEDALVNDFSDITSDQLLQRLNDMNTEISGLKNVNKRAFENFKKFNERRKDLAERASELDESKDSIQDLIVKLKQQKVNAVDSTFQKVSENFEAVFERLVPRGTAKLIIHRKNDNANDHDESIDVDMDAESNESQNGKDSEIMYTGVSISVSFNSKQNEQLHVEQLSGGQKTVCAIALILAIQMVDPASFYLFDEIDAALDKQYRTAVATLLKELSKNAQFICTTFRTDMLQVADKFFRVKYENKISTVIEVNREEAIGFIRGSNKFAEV
T1 sequence (Q12158 1-566 partner): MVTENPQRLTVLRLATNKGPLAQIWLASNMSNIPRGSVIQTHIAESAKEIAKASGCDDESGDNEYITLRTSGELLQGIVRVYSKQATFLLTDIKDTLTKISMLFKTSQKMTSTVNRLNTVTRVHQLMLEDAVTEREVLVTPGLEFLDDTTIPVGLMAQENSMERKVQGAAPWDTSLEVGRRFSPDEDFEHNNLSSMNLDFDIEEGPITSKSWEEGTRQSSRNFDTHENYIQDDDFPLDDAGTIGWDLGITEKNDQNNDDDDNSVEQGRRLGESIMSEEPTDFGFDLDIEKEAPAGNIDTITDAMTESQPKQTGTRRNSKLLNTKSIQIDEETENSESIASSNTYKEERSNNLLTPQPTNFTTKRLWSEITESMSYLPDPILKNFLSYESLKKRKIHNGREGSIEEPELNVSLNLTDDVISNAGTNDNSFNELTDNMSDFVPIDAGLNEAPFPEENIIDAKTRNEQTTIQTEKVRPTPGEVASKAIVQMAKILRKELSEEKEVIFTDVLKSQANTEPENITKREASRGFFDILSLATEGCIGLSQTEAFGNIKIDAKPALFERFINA
As to the kind of experiment: microscale thermophoresis. It counts as binding. As to conditions: fluorescently labelled protein; Smc1 co-purified with Scc1-C, plus Smc3; read-out: affinity. From the text:
microscale thermophoresis on Smc1/Smc3 heterodimer with Scc1-C (cohesin) | Smc1 L1129V, D1164E and E1158Q mutants all had wild-type-like affinity to both ATP and ADP | wild-type and mutant cohesin complexes appear to have similar affinities to ADP

With `Nc1ncnc2c1ncn2[C@@H]1O[C@H](COP(=O)(O)OP(=O)(O)O)[C@@H](O)[C@H]1O` [ADP], the Kd was more than 1000 µM.

Turning to `Nc1ncnc2c1ncn2[C@@H]1O[C@H](COP(=O)(O)OP(=O)(O)OP(=O)(O)O)[C@@H](O)[C@H]1O` [ATP], the Kd was 542 ± 188 µM.
